Data as given in patent US20230047816A1 (priority 2018, published 2023).

These molecules were tested against Recombinant full length human PFKFB3 (Homo sapiens, UniProt Q16875) (assay: PFKFB3 kinase activity assay (ADP production, ADP-Glo)).
Chain of Recombinant full length human PFKFB3 (Q16875 whole entry): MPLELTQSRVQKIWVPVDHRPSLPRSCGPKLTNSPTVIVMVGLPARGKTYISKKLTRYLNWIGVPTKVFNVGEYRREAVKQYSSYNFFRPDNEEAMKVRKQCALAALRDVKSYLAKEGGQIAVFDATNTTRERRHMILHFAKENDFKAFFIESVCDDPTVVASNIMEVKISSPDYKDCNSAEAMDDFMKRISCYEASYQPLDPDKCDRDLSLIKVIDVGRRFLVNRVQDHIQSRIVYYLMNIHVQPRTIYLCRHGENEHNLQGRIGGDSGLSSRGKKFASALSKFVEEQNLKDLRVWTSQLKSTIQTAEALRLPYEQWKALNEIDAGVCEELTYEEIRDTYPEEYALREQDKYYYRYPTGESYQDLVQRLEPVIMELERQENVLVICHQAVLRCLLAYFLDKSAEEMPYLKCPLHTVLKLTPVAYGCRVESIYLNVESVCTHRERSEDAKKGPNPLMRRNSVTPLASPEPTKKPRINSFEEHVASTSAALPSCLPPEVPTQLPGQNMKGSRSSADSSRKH
Method: Recombinant full length human PFKFB3 (or PFKFB4) protein purified from Sf9 baculoviral system was acquired from SignalChem (Cat. #P323-30G or P324-30G). ATP, Fructose-6-Phosphate and other chemicals were from Sigma-Aldrich. The kinase activity of the PFKFB3 (PFKFB4) protein was detected by measuring production of ADP from ATP in the presence of the Fructose-6-Phosphate substrate. The kinase reactions were assembled in 384 well plates in a total volume of 25 μL. Test compounds were serially diluted in DMSO. Reactions were set up by first mixing test compounds with enzyme and pre-incubating for 15 min. The ATP and Fructose-6-Phosphate substrates were next added to initiate the kinase reactions.
The compounds of invention listed below in this example were tested at various concentrations (which also added 1% DMSO from compounds, to the final solution) as described below. The kinase reactions were allowed to proceed for 1 h at room temperature. Aliquots of the reaction mixtures (5 μL) were transferred to fresh white 384 well plates and mixed with 5 μL of the ADP-Glo reagent (Promega), followed by incubation for 30 min. The luminescent Kinase Detection reagent was added (10 μL) and, following additional incubation for 15 min, the plates were read on luminescence plate reader (Analyst HT). Positive (100%-inhibition) and negative (0%-inhibition) control samples were assembled in each assay plate and were used to calculate percent inhibition values of test compounds. All experiments were performed in duplicate.
Work on `CS(=O)(=O)NC(=O)c1ccc2c(c1)C(=O)N(c1cc(-c3ccccc3)ccc1C(=O)O)C2` [Compound 104, 3-(6-Methanesulfonylaminocarbonyl-1-oxo-1,3-dihydroisoindol-2-yl)biphenyl-4-carboxylic Acid] yielded an IC50 of under 0.5 µM.
With `COC(=O)c1ccc(-c2ccc(F)c(F)c2)cc1N1Cc2ccc(C(=O)NS(C)(=O)=O)cc2C1=O` [Compound 105, 3′,4′-Difluoro-3-(6-methanesulfonylaminocarbonyl-1-oxo-1,3-dihydroisoindol-2-yl)biphenyl-4-carboxylic acid methyl ester] the IC50 was under 20 µM.
Molecule `CS(=O)(=O)NC(=O)c1ccc2c(c1)C(=O)N(c1cc(-c3ccc(F)c(F)c3)ccc1C(=O)O)C2` [Compound 106, 3′,4′-Difluoro-3-(6-methanesulfonylaminocarbonyl-1-oxo-1,3-dihydroisoindol-2-yl)biphenyl-4-carboxylic Acid] has an IC50 of 2 to 5 µM.
Work on `CS(=O)(=O)NC(=O)c1ccc2c(c1)C(=O)N(c1cc(-c3ccc(F)c(F)c3)ccc1C(N)=O)C2` [Compound 107, 3′,4′-Difluoro-3-(6-methanesulfonylaminocarbonyl-1-oxo-1,3-dihydroisoindol-2-yl)biphenyl-4-carboxylic acid amide] yielded an IC50 of under 20 µM.
`CN(C)CCOC(=O)c1ccc(-c2ccc(F)c(F)c2)cc1N1Cc2ccc(C(=O)NS(C)(=O)=O)cc2C1=O` [Compound 108, 3′,4′-Difluoro-3-(6-methanesulfonylaminocarbonyl-1-oxo-1,3-dihydroisoindol-2-yl)biphenyl-4-carboxylic acid 2-dimethylamino-ethyl ester] showed an IC50 of under 20 µM.
`CS(=O)(=O)NC(=O)c1ccc2c(c1)C(=O)N(c1cc(-c3ccc(F)c(F)c3)ccc1C(=O)OCCN1CCCC1)C2` [Compound 109, 3′,4′-Difluoro-3-(6-methanesulfonylaminocarbonyl-1-oxo-1,3-dihydroisoindol-2-yl)biphenyl-4-carboxylic acid 2-pyrrolidin-1-yl-ethyl ester] showed an IC50 of under 20 µM.
Work on `COC(=O)c1ccc(-c2ccc(F)c(F)c2)cc1N1Cc2ccc(-c3c[nH]nn3)cc2C1=O` [Compound 110, 3′,4′-Difluoro-3-[1-oxo-6-(1H-[1,2,3]triazol-4-yl)-1,3-dihydroisoindol-2-yl]biphenyl-4-carboxylic acid methyl ester] yielded an IC50 of under 20 µM.
Molecule `O=C(O)c1ccc(-c2ccc(F)c(F)c2)cc1N1Cc2ccc(-c3c[nH]nn3)cc2C1=O` [Compound 111, 3′,4′-Difluoro-3-[1-oxo-6-(1H-[1,2,3]triazol-4-yl)-1,3-dihydroisoindol-2-yl]biphenyl-4-carboxylic Acid] has an IC50 of under 0.5 µM.
Molecule `CN(C)CCOC(=O)c1ccc(-c2ccc(F)c(F)c2)cc1N1Cc2ccc(-c3c[nH]nn3)cc2C1=O` [Compound 112, 3′,4′-Difluoro-3-[1-oxo-6-(1H-[1,2,3]triazol-4-yl)-1,3-dihydroisoindol-2-yl]biphenyl-4-carboxylic acid 2-dimethylamino-ethyl ester] has an IC50 of under 20 µM.
With `NC(=O)c1ccc(-c2ccc(F)c(F)c2)cc1N1Cc2ccc(-c3c[nH]nn3)cc2C1=O` [Compound 113, 3′,4′-Difluoro-3-[1-oxo-6-(1H-[1,2,3]triazol-4-yl)-1,3-dihydroisoindol-2-yl]biphenyl-4-carboxylic acid amide] the IC50 was under 20 µM.
Molecule `O=C(OCCN1CCCC1)c1ccc(-c2ccc(F)c(F)c2)cc1N1Cc2ccc(-c3c[nH]nn3)cc2C1=O` [Compound 115, 3′,4′-Difluoro-3-[1-oxo-6-(1H-[1,2,3]triazol-4-yl)-1,3-dihydroisoindol-2-yl]biphenyl-4-carboxylic acid 2-pyrrolidin-1-yl-ethyl ester] has an IC50 of under 20 µM.
For `Cc1oc(=O)oc1COC(=O)c1ccc(-c2ccc(F)c(F)c2)cc1N1Cc2ccc(-c3c[nH]nn3)cc2C1=O` [Compound 116, 3′,4′-Difluoro-3-[1-oxo-6-(1H-[1,2,3]triazol-4-yl)-1,3-dihydro-isoindol-2-yl]-biphenyl-4-carboxylic acid (5-methyl-2-oxo-[1,3]dioxol-4-yl)methyl ester], the IC50 was 5 to 20 µM.
`CC(C)(C)OC(=O)c1ccc(-c2ccc(F)c(F)c2)cc1N1Cc2ccc(-c3c[nH]nn3)cc2C1=O` [Compound 117, 3′,4′-Difluoro-3-[1-oxo-6-(1H-[1,2,3]triazol-4-yl)-1,3-dihydro-isoindol-2-yl]-biphenyl-4-carboxylic acid tert-butyl ester] was tested, and the IC50 was under 20 µM.
`CC(C)OC(=O)c1ccc(-c2ccc(F)c(F)c2)cc1N1Cc2ccc(-c3c[nH]nn3)cc2C1=O` [Compound 118, 3′,4′-Difluoro-3-[1-oxo-6-(1H-[1,2,3]triazol-4-yl)-1,3-dihydro-isoindol-2-yl]-biphenyl-4-carboxylic acid isopropyl ester] was tested, and the IC50 was under 20 µM.
`NC(=O)c1ccc(-c2ccc(F)c(F)c2)cc1N1Cc2ccc(C(=O)O)cc2C1=O` [Compound 119, 2-(4-Carbamoyl-3′,4′-difluorobiphenyl-3-yl)-3-oxo-2,3-dihydro-1H-isoindole-5-carboxylic acid] gave an IC50 of 5 to 20 µM.
`CN(C)CCOC(=O)c1ccc(-c2ccc(F)c(F)c2)cc1N1Cc2ccc(C(=O)O)cc2C1=O` [Compound 120, 2-[4-(2-Dimethylamino-ethoxycarbonyl)-3′,4′-difluorobiphenyl-3-yl]-3-oxo-2,3-dihydro-1H-isoindole-5-carboxylic Acid] showed an IC50 of 5 to 20 µM.
`COC(=O)c1ccc(-c2ccc(F)c(F)c2)cc1N1Cc2ccc(-n3cnnn3)cc2C1=O` [Compound 121, 3′,4′-Difluoro-3-(1-oxo-6-tetrazol-1-yl-1,3-dihydroisoindol-2-yl)biphenyl-4-carboxylic acid methyl ester] showed an IC50 of under 20 µM.
Molecule `O=C(O)c1ccc(-c2ccc(F)c(F)c2)cc1N1Cc2ccc(-n3cnnn3)cc2C1=O` [Compound 122, 3′,4′-Difluoro-3-(1-oxo-6-tetrazol-1-yl-1,3-dihydroisoindol-2-yl)biphenyl-4-carboxylic Acid] has an IC50 of 0.5 to 2 µM.
`CCCCOC(=O)c1ccc2c(c1)C(=O)N(c1cc(-c3ccc(F)c(F)c3)ccc1C(N)=O)C2` [Compound 123, 2-(4-Carbamoyl-3′,4′-difluorobiphenyl-3-yl)-3-oxo-2,3-dihydro-1H-isoindole-5-carboxylic acid butyl ester] showed an IC50 of under 20 µM.
`CN(C)CCCOC(=O)c1ccc(-c2ccc(F)c(F)c2)cc1N1Cc2ccc(C(=O)NS(C)(=O)=O)cc2C1=O` [Compound 124, 3′,4′-Difluoro-3-(6-methanesulfonylaminocarbonyl-1-oxo-1,3-dihydro-isoindol-2-yl)-biphenyl-4-carboxylic acid 3-dimethylamino-propyl ester] showed an IC50 of under 20 µM.
Work on `CC(C)OC(=O)c1ccc(-c2ccc(F)c(F)c2)cc1N1Cc2ccc(C(=O)NS(C)(=O)=O)cc2C1=O` [Compound 125, 3′,4′-Difluoro-3-(6-methanesulfonylaminocarbonyl-1-oxo-1,3-dihydro-isoindol-2-yl)-biphenyl-4-carboxylic acid isopropyl ester] yielded an IC50 of under 20 µM.
For `O=C(O)c1ccc2c(c1)C(=O)N(c1cc(-c3ccc(F)c(F)c3)ccc1C(=O)O)C2` [Compound 126, 2-(4-Carboxy-3′,4′-difluoro-biphenyl-3-yl)-3-oxo-2,3-dihydro-1H-isoindole-5-carboxylic acid], the IC50 was under 20 µM.
With `COC(=O)c1ccc2c(c1)C(=O)N(c1cc(-c3ccc(F)c(F)c3)ccc1C(=O)OC)C2` [Compound 127, 2-(3′,4′-Difluoro-4-methoxycarbonylbiphenyl-3-yl)-3-oxo-2,3-dihydro-1H-isoindole-5-carboxylic acid methyl ester] the IC50 was under 20 µM.
Work on `CCCCOC(=O)c1ccc2c(c1)C(=O)N(c1cc(-c3ccc(F)c(F)c3)ccc1C(=O)O)C2` [Compound 128, 2-(4-Carboxy-3′,4′-difluoro-biphenyl-3-yl)-3-oxo-2,3-dihydro-1H-isoindole-5-carboxylic acid butyl ester] yielded an IC50 of 5 to 20 µM.
`CN(C)CCOC(=O)c1ccc2c(c1)C(=O)N(c1cc(-c3ccc(F)c(F)c3)ccc1C(=O)O)C2` [Compound 129, 2-(4-Carboxy-3′,4′-difluorobiphenyl-3-yl)-3-oxo-2,3-dihydro-1H-isoindole-5-carboxylic acid 2-dimethylamino-ethyl ester] showed an IC50 of under 20 µM.
Molecule `CC(=O)Nc1ccc2c(c1)C(=O)N(c1cc(-c3ccc(F)c(F)c3)ccc1C(=O)O)C2` [Compound 130, 3-(6-Acetylamino-1-oxo-1,3-dihydroisoindol-2-yl)-3′,4′-difluoro-biphenyl-4-carboxylic Acid] has an IC50 of under 20 µM.
In the case of `CS(=O)(=O)Nc1ccc2c(c1)C(=O)N(c1cc(-c3ccc(F)c(F)c3)ccc1C(=O)O)C2` [Compound 131, 3′,4′-Difluoro-3-(6-methanesulfonylamino-1-oxo-1,3-dihydro-isoindol-2-yl)-biphenyl-4-carboxylic Acid], the IC50 is reported as under 20 µM.
Work on `Cc1ccc(S(=O)(=O)Nc2ccc3c(c2)C(=O)N(c2cc(-c4ccc(F)c(F)c4)ccc2C(=O)O)C3)cc1` [Compound 132, 3′,4′-Difluoro-3-[1-oxo-6-(toluene-4-sulfonylamino)-1,3-dihydro-isoindol-2-yl]-biphenyl-4-carboxylic acid] yielded an IC50 of 5 to 20 µM.
In the case of `N#Cc1c(N2C(=O)c3ccc(C(=O)O)cc3C2=O)sc(-c2ccccc2)c1-c1ccccc1` [Compound 133, 2-(3-Cyano-4,5-diphenylthiophen-2-yl)-1,3-dioxo-2,3-dihydro-1H-isoindole-5-carboxylic acid], the IC50 is reported as under 0.5 µM.
`O=C(NS(=O)(=O)c1ccccc1)c1ccc2c(c1)C(=O)N(c1ccc(-c3ccccc3)cc1-c1nnn[nH]1)C2=O` [Compound 135, N-(Benzenesulfonyl)-2-(3-(1H-tetrazol-5-yl)-[1,1′-biphenyl]-4-yl)-1,3-dioxo-2,3-dihydro-1H-isoindole-5-carboxamide] showed an IC50 of 5 to 20 µM.
In the case of `COc1ccc(-c2c(C)sc(N3C(=O)c4ccc(C(=O)N[C@@H](Cc5ccc(O)cc5)C(=O)O)cc4C3=O)c2C#N)cc1` [Compound 136, (2S)-2-({2-[3-Cyano-4-(4-methoxyphenyl)-5-methyl-thiophen-2-yl]-1,3-dioxo-2,3-dihydro-1H-isoindole-5-carbonyl}-amino)-3-(4-hydroxyphenyl)propanoic acid], the IC50 is reported as 2 to 5 µM.
`COc1ccc(-c2c(C)sc(N3C(=O)c4ccc(C(=O)N[C@@H](Cc5ccccc5)C(=O)O)cc4C3=O)c2C#N)cc1` [Compound 137, (2S)-2-({2-[3-Cyano-4-(4-methoxyphenyl)-5-methyl-thiophen-2-yl]-1,3-dioxo-2,3-dihydro-1H-isoindole-5-carbonyl}-amino)-3-phenylpropanoic acid] was tested, and the IC50 was 0.5 to 2 µM.
